Measured values: patent US10960084B2, “Modulation of fluid intake” (California Institute of Technology, priority 2018, dated 2021)
Entries after “also recorded” stand apart in the source; their conditions may differ.

Columns and labels:
Format in all cases: in vivo, mice
MnPO^GLP1r neurons = assay: Drinking assays with chemogenetic inhibition of MnPO^GLP1r neurons by CNO; conditions: hM4Di in MnPO^GLP1r
Method: (§1) For water-restriction experiments, animals were provided with 1 mL of water daily. For food restriction experiments, animals were provided 0.5 pellets/20 g body weight daily. All assays were performed in a modified lickometer as described previously^[35] or Biodaq monitoring system (Research Diets Inc). For all photometry assays, animals were acclimatized for 10-15 min in the lickometer cage before stimuli were given.
(§2) Long-term access assays: Optogenetic Testing—For FIGS. 1L-N and FIGS. 7L-O, satiated mice were given ad libitum access to water for 20 min with photostimulation. Photostimulation was delivered for 1-s followed by 3-s intervals throughout the behavioral sessions. For FIGS. 2J-M and FIGS. 11C-E, mice were given access to water for 20 min after 24 h water-restriction, and photostimulation was delivered for the first 10 min. For feeding assays (FIGS. 2J-M), animals were single-housed in Biodaq cages after 24 h food-restriction, and chow intake was measured for 20 min with or without light stimulation. For acute inhibition experiments, mice were given access to 150 mM NaCl (FIGS. 5D-E, FIGS. 13E-F), water (FIGS. 1L-N, FIGS. 7L-O, FIGS. 13A-D, FIGS. 13G-H) for 20-30 min after 24 h water-restriction or 300 mM sucrose (FIGS. 1L-N, FIGS. 7L-O) after food-restriction. For all acute inhibition experiments, CNO was injected at 10 mg/kg body weight, 30 min prior to the start of the behavior session. For acute activation experiments, CNO was injected at 1 mg/kg body weight (FIGS. 12L-M), 30 min prior to the start of the behavior session. For FIG. 3A, FIGS. 9A-C, and FIG. 13L, water or saline access was provided for 30 min after 24 hours of water restriction. For FIGS. 4A-B, water or HydroGel (ClearH2O) in a cup was provided for 30 min after 24 and 36 hours of water restriction, respectively. The weight of the cup was measured before and after the behavior session. For FIGS. 4K-L, 0.5 pellets of chow was provided for 30 min after 24 h food-restriction. The entire session was recorded using a camera at 30 fps and ingestion episodes were manually annotated.

SFO^nNOS neurons = assay: Acute activation of SFO^nNOS neurons by hM3Dq-mCherry with CNO; conditions: hM3Dq-mCherry in SFO^nNOS; intraperitoneal CNO 1 mg/kg
Method: Long-term access assays: Optogenetic Testing—For FIGS. 1L-N and FIGS. 7L-O, satiated mice were given ad libitum access to water for 20 min with photostimulation. Photostimulation was delivered for 1-s followed by 3-s intervals throughout the behavioral sessions. For FIGS. 2J-M and FIGS. 11C-E, mice were given access to water for 20 min after 24 h water-restriction, and photostimulation was delivered for the first 10 min. For feeding assays (FIGS. 2J-M), animals were single-housed in Biodaq cages after 24 h food-restriction, and chow intake was measured for 20 min with or without light stimulation. […] The weight of the cup was measured before and after the behavior session. […] The entire session was recorded using a camera at 30 fps and ingestion episodes were manually annotated.
We measured bulk fluorescence signals using fiber photometry as previously described^[26]. […] The fluorescence signal was then focused onto a femtowatt photoreceiver (Newport, Model 2151). […] The licks from the lickometer were simultaneously recorded as real-time TTL signals to the RP2.1. Fluorescence changes were analyzed using custom MATLAB (MathWorks) code as described previously^[26]. […] The resultant ΔF/F was calculated as (raw 490 nm signal-fitted 405 nm signal)/(fitted 405 nm signal). For brief access tests, the Area Under Curve (ΣΔFduring) was quantified by integrating the fluorescence signals during the bout. […]

MnPO^nNOS neurons = assay: Drinking assays with chemogenetic inhibition of MnPO^nNOS neurons by CNO; conditions: hM4Di in MnPO^nNOS, CNO injection 10 mg/kg
Method: as §1
as §2, with “annotated. […]” for “annotated.”

With `C[N+]1([O-])CCN(C2=Nc3cc(Cl)ccc3Nc3ccccc32)CC1` [CNO, clozapine-N-oxide] the “water or saline intake under satiated conditions” value (MnPO^GLP1r neurons; satiated) was “did not elevate water or saline intake”, the “total water intake (30 min)” value (MnPO^GLP1r neurons; water-restricted animals) was “minor effect” and the “water consumption at the onset of drinking (first 1 min)” value (MnPO^GLP1r neurons; water-restricted animals) was “significantly increases water consumption at the onset of drinking”. The “total amount of isotonic saline intake” value (MnPO^GLP1r neurons; water-restricted, 30 min, CNO 10 mg/kg vs vehicle) was “strikingly increased; also recorded: causes overdrinking of isotonic saline”, the “duration of saline intake (time spent for drinking)” value (MnPO^GLP1r neurons; water-restricted, 30 min, CNO vs vehicle) was “strikingly increased” and the water drinking (SFO^nNOS neurons) was “induce water drinking”. The “SFO^nNOS-stimulated water intake” value (MnPO^nNOS neurons; SFO^nNOS photostimulation) was “severely suppressed water consumption; also recorded: severely reduced”, the “sucrose (300 mM) consumption” value (MnPO^nNOS neurons; food-restricted animals) was “did not decrease sugar; also recorded: did not suppress sucrose consumption” and the dehydration-induced water intake (MnPO^nNOS neurons; water-restricted animals) was “severely suppressed water consumption; also recorded: severely reduced”.
